# PubChem BioAssay AID330 (DTP/NCI, 2004)
# Where “and” joins values, the source holds several entries; their conditions need not be identical. Identical values can stand only once. Toxic doses and inconclusive results are not listed.
# Tested on: P388 leukemia ip, CD2F1 mice, survival T/C
# Assay: NCI In Vivo Anticancer Drug Screen. Data for tumor model P388 Leukemia (intraperitoneal) in CD2F1 (CDF1) mice
# Settings: endpoint: median survival time, higher = longer survival
# In short: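 Mice carrying the transplanted tumor received test compound or vehicle. Survival was recorded in each group, and the value is the treated-group measurement divided by that of the vehicle-treated control group.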
# [1] = dose: 50.0 mg/kg/injection, schedule: Q01DX005 (ip), vehicle: saline with Tween-80
# [2] = dose: 100.0 mg/kg/injection, schedule: Q01DX005 (ip), vehicle: saline with Tween-80
# [3] = dose: 200.0 mg/kg/injection, schedule: Q01DX005 (ip), vehicle: saline with Tween-80
# [4] = dose: 60.0 mg/kg/injection, schedule: Q01DX005 (ip), vehicle: Klucel (hydroxypropylcellulose) (HPC)
# [5] = dose: 200.0 mg/kg/injection, schedule: Q01DX009 (ip), vehicle: saline with Tween-80
# [6] = dose: 50.0 mg/kg/injection, schedule: Q01DX005 (ip), vehicle: Klucel (hydroxypropylcellulose) (HPC)
# [7] = dose: 100.0 mg/kg/injection, schedule: Q01DX005 (ip), vehicle: Klucel (hydroxypropylcellulose) (HPC)
smiles,measurement,setting,value
CCOC(=O)C(N=Nc1ccc(C)cc1Br)C(C)=O (stereo not given),T/C,[1],102 % of control
same,T/C,[2],93 % of control
same,T/C,[3],93 % of control
CCN(CC)C(=Nc1ccc(Cl)c(Cl)c1)SC(NC=O)=C(Cl)Cl,T/C,[4],100 % of control
same,T/C,"dose: 120.0 mg/kg/injection, schedule: Q01DX005 (ip), vehicle: Klucel (hydroxypropylcellulose) (HPC)",104 % of control
same,T/C,"dose: 240.0 mg/kg/injection, schedule: Q01DX005 (ip), vehicle: Klucel (hydroxypropylcellulose) (HPC)",104 % of control
CC(=O)n1nc(Cl)c2cccnc2c1=O,T/C,[1],98 % of control
same,T/C,[2],99 % of control
same,T/C,[3],107 % of control
CCSC(C(O)C(O)C(O)C(O)CO)n1cnc2c(SC)ncnc21 (stereo not given),T/C,"dose: 25.0 mg/kg/injection, schedule: Q01DX009 (ip), vehicle: water",99 % of control
same,T/C,"dose: 50.0 mg/kg/injection, schedule: Q01DX009 (ip), vehicle: water",95 % of control
same,T/C,"dose: 100.0 mg/kg/injection, schedule: Q01DX009 (ip), vehicle: water",94 % of control
same,T/C,"dose: 200.0 mg/kg/injection, schedule: Q01DX009 (ip), vehicle: water",99 % of control
same,T/C,"dose: 400.0 mg/kg/injection, schedule: Q01DX009 (ip), vehicle: water",97 % of control
O=[N+]([O-])c1cccc2c[n+](Cc3ccc(Br)cc3)ccc12,T/C,"dose: 6.25 mg/kg/injection, schedule: Q01DX009 (ip), vehicle: saline",107 % of control
same,T/C,"dose: 12.5 mg/kg/injection, schedule: Q01DX009 (ip), vehicle: saline",117 % of control
same,T/C,"dose: 25.0 mg/kg/injection, schedule: Q01DX009 (ip), vehicle: saline",118 % of control
COc1cc2nc3occc3c(OC)c2cc1OCC(O)C(C)(C)O (stereo not given),T/C,"dose: 12.5 mg/kg/injection, schedule: Q01DX005 (ip), vehicle: distilled water + Tween-80",91 % of control
same,T/C,"dose: 25.0 mg/kg/injection, schedule: Q01DX005 (ip), vehicle: distilled water + Tween-80",98 % of control
CC1=NN(c2ccccc2)C(=O)/C1=C(\[O-])c1ccccc1.CC1=NN(c2ccccc2)C(=O)/C1=C(\[O-])c1ccccc1.[Co+2],T/C,"dose: 15.0 mg/kg/injection, schedule: Q01DX005 (ip), vehicle: saline with Tween-80",100 % of control
same,T/C,"dose: 30.0 mg/kg/injection, schedule: Q01DX005 (ip), vehicle: saline with Tween-80",102 % of control
same,T/C,"dose: 60.0 mg/kg/injection, schedule: Q01DX005 (ip), vehicle: saline with Tween-80",102 % of control and 109 % of control
COc1cc2c(cc1OC)C(C)N(C)c1c-2c(OC(C)=O)cc2cc(OC)c(OC)cc12 (stereo not given),T/C,[1],97 % of control
same,T/C,[2],100 % of control
same,T/C,[3],92 % of control
C=C(COC(=O)/C=C\C)C(=O)OCC,T/C,"dose: 50.0 mg/kg/injection, schedule: Q01DX009 (ip), vehicle: saline",106 % of control
same,T/C,"dose: 100.0 mg/kg/injection, schedule: Q01DX009 (ip), vehicle: saline",99 % of control
same,T/C,"dose: 200.0 mg/kg/injection, schedule: Q01DX009 (ip), vehicle: saline",106 % of control
c1ccc2c(c1)ccc1cc3cccc[n+]3cc12,T/C,"dose: 0.5 mg/kg/injection, schedule: Q01DX009 (ip), vehicle: saline",92 % of control
same,T/C,"dose: 1.0 mg/kg/injection, schedule: Q01DX009 (ip), vehicle: saline",103 % of control
same,T/C,"dose: 2.0 mg/kg/injection, schedule: Q01DX009 (ip), vehicle: saline",92 % of control
c1ccc2c(c1)c1c(c3ccccc32)CNCC1,T/C,"dose: 3.12 mg/kg/injection, schedule: Q01DX005 (ip), vehicle: saline with Tween-80",97 % of control
same,T/C,"dose: 6.25 mg/kg/injection, schedule: Q01DX005 (ip), vehicle: saline with Tween-80",95 % of control
same,T/C,"dose: 12.5 mg/kg/injection, schedule: Q01DX005 (ip), vehicle: saline with Tween-80",101 % of control and 95 % of control
same,T/C,[1],117 % of control
O=[N+]([O-])c1cc(S(=O)(=O)NCc2ccco2)ccc1N/N=C/c1ccccn1,T/C,[5],86 % of control
O=C1NC(=O)c2ccc3c4ccc5c6c(ccc(c7ccc1c2c73)c46)c(=O)n1c2ccccc2nc51,T/C,"dose: 90.0 mg/kg/injection, schedule: Q01DX001 (ip), vehicle: Klucel (hydroxypropylcellulose) (HPC)",94 % of control
same,T/C,"dose: 180.0 mg/kg/injection, schedule: Q01DX001 (ip), vehicle: Klucel (hydroxypropylcellulose) (HPC)",94 % of control
same,T/C,"dose: 360.0 mg/kg/injection, schedule: Q01DX001 (ip), vehicle: Klucel (hydroxypropylcellulose) (HPC)",92 % of control
CCCCCCCCCCCCCCC/C([O-])=N/[N+](C)(C)CC(C)O (stereo not given),T/C,"dose: 50.0 mg/kg/injection, schedule: Q04DX003 (ip), vehicle: Klucel (hydroxypropylcellulose) (HPC)",99 % of control
same,T/C,"dose: 100.0 mg/kg/injection, schedule: Q04DX003 (ip), vehicle: Klucel (hydroxypropylcellulose) (HPC)",99 % of control
same,T/C,"dose: 200.0 mg/kg/injection, schedule: Q04DX003 (ip), vehicle: Klucel (hydroxypropylcellulose) (HPC)",99 % of control
CC(=O)O[C@H]1C[C@@H]2C(COC(=O)CC(C)C)=CO[C@@H](OC(=O)CC(C)C)[C@@H]2[C@@]12CO2,T/C,"dose: 3.75 mg/kg/injection, schedule: Q01DX005 (ip), vehicle: Klucel (hydroxypropylcellulose) (HPC)",105 % of control
same,T/C,"dose: 7.5 mg/kg/injection, schedule: Q01DX005 (ip), vehicle: Klucel (hydroxypropylcellulose) (HPC)",101 % of control
same,T/C,"dose: 15.0 mg/kg/injection, schedule: Q01DX005 (ip), vehicle: Klucel (hydroxypropylcellulose) (HPC)",88 % of control
same,T/C,"dose: 30.0 mg/kg/injection, schedule: Q01DX005 (ip), vehicle: Klucel (hydroxypropylcellulose) (HPC)",95 % of control
same,T/C,[4],101 % of control
CSc1ccc(/C=N/N=c2ccn(-c3ccc(Cl)cc3)cc2)cc1,T/C,"dose: 25.0 mg/kg/injection, schedule: Q01DX001 (ip), vehicle: Klucel (hydroxypropylcellulose) (HPC)",100 % of control
same,T/C,"dose: 50.0 mg/kg/injection, schedule: Q01DX001 (ip), vehicle: Klucel (hydroxypropylcellulose) (HPC)",102 % of control
same,T/C,"dose: 100.0 mg/kg/injection, schedule: Q01DX001 (ip), vehicle: Klucel (hydroxypropylcellulose) (HPC)",100 % of control and 91 % of control
COc1ccccc1NC(N)=S,T/C,"dose: 25.0 mg/kg/injection, schedule: Q01DX009 (ip), vehicle: Klucel (hydroxypropylcellulose) (HPC)",96 % of control
same,T/C,"dose: 50.0 mg/kg/injection, schedule: Q01DX009 (ip), vehicle: Klucel (hydroxypropylcellulose) (HPC)",98 % of control
same,T/C,"dose: 100.0 mg/kg/injection, schedule: Q01DX009 (ip), vehicle: Klucel (hydroxypropylcellulose) (HPC)",96 % of control
same,T/C,"dose: 200.0 mg/kg/injection, schedule: Q01DX009 (ip), vehicle: Klucel (hydroxypropylcellulose) (HPC)",97 % of control
Nc1c(Br)cc(Br)c2c1C(=O)c1ccccc1-2,T/C,[1],98 % of control
same,T/C,[2],91 % of control
same,T/C,[3],96 % of control
Nc1nc(N)c2cc(CNc3ccc(C(=O)NC(CC(=O)O)CC(=O)O)cc3)ccc2n1,T/C,"dose: 12.5 mg/kg/injection, schedule: Q01DX009 (ip), vehicle: saline with Tween-80",203 % of control
same,T/C,"dose: 25.0 mg/kg/injection, schedule: Q01DX009 (ip), vehicle: saline with Tween-80",226 % of control
same,T/C,"dose: 100.0 mg/kg/injection, schedule: Q01DX009 (ip), vehicle: saline sonified",168 % of control
same,T/C,"dose: 100.0 mg/kg/injection, schedule: Q01DX009 (ip), vehicle: saline with Tween-80",99 % of control
same,T/C,"dose: 100.0 mg/kg/injection, schedule: Q04DX003 (ip), vehicle: saline sonified",181 % of control
same,T/C,"dose: 200.0 mg/kg/injection, schedule: Q01DX009 (ip), vehicle: saline sonified",204 % of control
same,T/C,[5],87 % of control
same,T/C,"dose: 200.0 mg/kg/injection, schedule: Q04DX003 (ip), vehicle: saline sonified",150 % of control
same,T/C,"dose: 400.0 mg/kg/injection, schedule: Q01DX009 (ip), vehicle: saline sonified",159 % of control
same,T/C,"dose: 400.0 mg/kg/injection, schedule: Q04DX003 (ip), vehicle: saline sonified",113 % of control
N#CCCN(N)S(=O)(=O)c1ccc(Br)cc1,T/C,[6],102 % of control
same,T/C,[7],96 % of control
same,T/C,"dose: 200.0 mg/kg/injection, schedule: Q01DX005 (ip), vehicle: Klucel (hydroxypropylcellulose) (HPC)",115 % of control
CC(C)(C)c1cc2c(c(C(C)(C)OC(=O)c3ccccc3)c1)SOC2(C)C,T/C,"dose: 12.5 mg/kg/injection, schedule: Q01DX005 (ip), vehicle: saline",101 % of control
same,T/C,"dose: 12.5 mg/kg/injection, schedule: Q01DX005 (ip), vehicle: suspension in saline",102 % of control
same,T/C,"dose: 25.0 mg/kg/injection, schedule: Q01DX005 (ip), vehicle: saline",91 % of control
same,T/C,"dose: 25.0 mg/kg/injection, schedule: Q01DX005 (ip), vehicle: suspension in saline",100 % of control
same,T/C,[6],100 % of control
same,T/C,"dose: 50.0 mg/kg/injection, schedule: Q01DX005 (ip), vehicle: saline",100 % of control
same,T/C,"dose: 50.0 mg/kg/injection, schedule: Q01DX005 (ip), vehicle: suspension in saline",106 % of control
same,T/C,[7],104 % of control
same,T/C,"dose: 100.0 mg/kg/injection, schedule: Q01DX005 (ip), vehicle: saline",98 % of control
same,T/C,"dose: 100.0 mg/kg/injection, schedule: Q01DX005 (ip), vehicle: suspension in saline",102 % of control
